Measured values as given in patent publication US20250281424A1 (New York Blood Center, Inc, priority 2020, published 2025).

Biological target: T1, human PF4 (Homo sapiens, UniProt P02776)
T1 construct: PF4 is a 70 amino acid, lysine-rich 7.8 kDa platelet-specific protein; made in house; host or cells: Escherichia coli BL21DE3 pLysS (pT7-7) and/or Drosophila S2 cells
T1 sequence (P02776 32-101): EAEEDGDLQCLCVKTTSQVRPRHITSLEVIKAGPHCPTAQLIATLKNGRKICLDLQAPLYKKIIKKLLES
Test: Inhibition of PF4 tetramer formation (BS3 cross-linking, SDS-PAGE)
Assay type: biochemical
Details: for inhibition at 10 µM: 10 μM inhibitor (column A); for inhibition at 10 µM / inhibition at 1 µM / inhibition at 3 µM: read-out: % inhibition of PF4 tetramer formation at single concentration of inhibitor; for IC50: read-out: IC50 of PF4 tetramer formation inhibition
Procedure, shortened: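 Monomer, dimer, trimer and tetramer fractions were quantified by densitometry after reducing 12% SDS-PAGE of BS3-cross-linked (0.2 mM, 30 min, room temperature) PF4. Before cross-linking, 10 μg/ml E. coli-expressed human WT PF4 in PBS was exposed to compound for 15 min at 37° C or 60 min at room temperature; controls lacked compound.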

Row | SMILES | inhibition at 10 µM | inhibition at 1 µM (1 μM inhibitor) | inhibition at 3 µM (3 μM inhibitor (column A)) | % inhibition of PF4 tetramer formation at single concentration of inhibitor (1 μM inhibitor, 1 µM) | % inhibition of PF4 tetramer formation at single concentration of inhibitor (3 μM inhibitor (column A), 3 µM) | IC50
1 | CSCCCC(=O)C1C(=O)c2ccc(Oc3ccc4c(c3)C(=O)C(C(=O)CCCSC)C4=O)cc2C1=O (stereo not drawn) [Example 283, 2-[4-(methylsulfanyl)butanoyl]-5-({2-[4-(methylsulfanyl)butanoyl]-1,3-dioxo-2,3-dihydro-1H-inden-5-yl}oxy)-2,3-dihydro-1H-indene-1,3-dione] | 86% | – | – | – | – | 10 µM
2 | CSCCCC(=O)C1C(=O)c2ccc(C(=O)c3ccc4c(c3)C(=O)C(C(=O)CCCSC)C4=O)cc2C1=O (stereo not drawn) [Example 284, 2-[4-(methylsulfanyl)butanoyl]-5-{2-[4-(methylsulfanyl)butanoyl]-1,3-dioxo-2,3-dihydro-1H-indene-5-carbonyl}-2,3-dihydro-1H-indene-1,3-dione] | 81% | – | – | – | – | 10 µM
3 | CSCCCC(=O)C1C(=O)c2ccc(S(=O)(=O)c3ccc4c(c3)C(=O)C(C(=O)CCCSC)C4=O)cc2C1=O (stereo not drawn) [Example 285, 2-[4-(methylsulfanyl)butanoyl]-5-({2-[4-(methylsulfanyl)butanoyl]-1,3-dioxo-2,3-dihydro-1H-inden-5-yl}sulfonyl)-2,3-dihydro-1H-indene-1,3-dione] | – | 33% | 49% | – | – | 3 µM
4 | O=C1c2ccc(Oc3ccc4c(c3)C(=O)C(C(=O)C3CCCCC3)C4=O)cc2C(=O)C1C(=O)C1CCCCC1 (stereo not drawn) [Example 286, 2-cyclohexanecarbonyl-5-[(2-cyclohexanecarbonyl-1,3-dioxo-2,3-dihydro-1H-inden-5-yl)oxy]-2,3-dihydro-1H-indene-1,3-dione] | – | 37% | 47% | – | – | 3 µM
5 | O=C(c1ccc2c(c1)C(=O)C(C(=O)C1CCCCC1)C2=O)c1ccc2c(c1)C(=O)C(C(=O)C1CCCCC1)C2=O (stereo not drawn) [Example 287, 2-cyclohexanecarbonyl-5-(2-cyclohexanecarbonyl-1,3-dioxo-2,3-dihydro-1H-indene-5-carbonyl)-2,3-dihydro-1H-indene-1,3-dione] | – | 5% | 31% | – | – | 3 µM
6 | O=C1c2ccc(S(=O)(=O)c3ccc4c(c3)C(=O)C(C(=O)C3CCCCC3)C4=O)cc2C(=O)C1C(=O)C1CCCCC1 (stereo not drawn) [Example 288, 2-cyclohexanecarbonyl-5-[(2-cyclohexanecarbonyl-1,3-dioxo-2,3-dihydro-1H-inden-5-yl)sulfonyl]-2,3-dihydro-1H-indene-1,3-dione] | – | 10% | 15% | – | – | 3 µM
7 | O=C(c1ccc2c(c1)C(=O)C(C(=O)CSc1ccncc1)C2=O)c1ccc2c(c1)C(=O)C(C(=O)CSc1ccncc1)C2=O (stereo not drawn) [Example 289, 5-{1,3-dioxo-2-[2-(pyridin-4-ylsulfanyl)acetyl]-2,3-dihydro-1H-indene-5-carbonyl}-2-[2-(pyridin-4-ylsulfanyl)acetyl]-2,3-dihydro-1H-indene-1,3-dione] | – | 27% | 52% | – | – | –
8 | O=C(CSc1ccncc1)C1C(=O)c2ccc(S(=O)(=O)c3ccc4c(c3)C(=O)C(C(=O)CSc3ccncc3)C4=O)cc2C1=O (stereo not drawn) [Example 290, 5-({1,3-dioxo-2-[2-(pyridin-4-ylsulfanyl)acetyl]-2,3-dihydro-1H-inden-5-yl}sulfonyl)-2-[2-(pyridin-4-ylsulfanyl)acetyl]-2,3-dihydro-1H-indene-1,3-dione] | – | 39% | 51% | – | – | –
9 | COCCOCCNC(=O)C1C(=O)c2ccc(Oc3ccc4c(c3)C(=O)C(C(=O)NCCOCCOC)C4=O)cc2C1=O (stereo not drawn) [Example 291, 5-({2-[hydroxy({[2-(2-methoxyethoxy)ethyl]amino})methyl]-1,3-dioxo-2,3-dihydro-1H-inden-5-yl}oxy)-N-[2-(2-methoxyethoxy)ethyl]-1,3-dioxo-2,3-dihydro-1H-indene-2-carboxamide] | – | 69% | 100% | – | – | 1.29 µM
10 | O=C(NC1CCC1)C1C(=O)c2ccc(S(=O)(=O)c3ccc4c(c3)C(=O)C(C(=O)NC3CCC3)C4=O)cc2C1=O (stereo not drawn) [Example 292, N-cyclobutyl-5-{[2-(cyclobutylcarbamoyl)-1,3-dioxo-2,3-dihydro-1H-inden-5-yl]sulfonyl}-1,3-dioxo-2,3-dihydro-1H-indene-2-carboxamide] | – | 47% | 100% | – | – | 1.26 µM
11 | O=C(CN1CCCC1=O)C1C(=O)c2ccc(C#Cc3ccc4c(c3)C(=O)C(C(=O)CN3CCCC3=O)C4=O)cc2C1=O (stereo not drawn) [Example 293, 5-(2-{1,3-dioxo-2-[2-(2-oxopyrrolidin-1-yl)acetyl]-2,3-dihydro-1H-inden-5-yl}ethynyl)-2-[2-(2-oxopyrrolidin-1-yl)acetyl]-2,3-dihydro-1H-indene-1,3-dione] | – | 28% | 43% | – | – | –
12 | O=C1c2ccc(S(=O)(=O)c3ccc4c(c3)C(=O)C(C(=O)C3CCC3)C4=O)cc2C(=O)C1C(=O)C1CCC1 (stereo not drawn) [Example 296, 2-cyclobutanecarbonyl-5-[(2-cyclobutanecarbonyl-1,3-dioxo-2,3-dihydro-1H-inden-5-yl)sulfonyl]-2,3-dihydro-1H-indene-1,3-dione] | – | 22% | 36% | – | – | –
13 | O=C1c2ccc(Oc3ccc4c(c3)C(=O)C(C(=O)C3CCC3)C4=O)cc2C(=O)C1C(=O)C1CCC1 (stereo not drawn) [Example 297, 2-cyclobutanecarbonyl-5-[(2-cyclobutanecarbonyl-1,3-dioxo-2,3-dihydro-1H-inden-5-yl)oxy]-2,3-dihydro-1H-indene-1,3-dione] | – | 38% | 100% | – | – | 1.74 µM
14 | O=C(c1ccc2c(c1)C(=O)C(C(=O)C1CCC1)C2=O)c1ccc2c(c1)C(=O)C(C(=O)C1CCC1)C2=O (stereo not drawn) [Example 299, 2-cyclobutanecarbonyl-5-(2-cyclobutanecarbonyl-1,3-dioxo-2,3-dihydro-1H-indene-5-carbonyl)-2,3-dihydro-1H-indene-1,3-dione] | – | 32% | 56% | – | – | –

Second part, led by results:

Row | inhibition at 10 µM | inhibition at 1 µM (1 μM inhibitor) | inhibition at 3 µM (3 μM inhibitor (column A)) | % inhibition of PF4 tetramer formation at single concentration of inhibitor (1 μM inhibitor, 1 µM) | % inhibition of PF4 tetramer formation at single concentration of inhibitor (3 μM inhibitor (column A), 3 µM) | SMILES | IC50
15 | – | 45% | 88% | – | – | O=C(NC1CCCC1)C1C(=O)c2ccc(S(=O)(=O)c3ccc4c(c3)C(=O)C(C(=O)NC3CCCC3)C4=O)cc2C1=O (stereo not drawn) [Example 294, N-cyclopentyl-5-{[2-(cyclopentylcarbamoyl)-1,3-dioxo-2,3-dihydro-1H-inden-5-yl]sulfonyl}-1,3-dioxo-2,3-dihydro-1H-indene-2-carboxamide] | 1.97 µM
16 | – | 29% | 100% | – | – | COCCOCCNC(=O)C1C(=O)c2ccc(S(=O)(=O)c3ccc4c(c3)C(=O)C(C(=O)NCCOCCOC)C4=O)cc2C1=O (stereo not drawn) [Example 295, N-[2-(2-methoxyethoxy)ethyl]-5-[(2-{[2-(2-methoxyethoxy)ethyl]carbamoyl}-1,3-dioxo-2,3-dihydro-1H-inden-5-yl)sulfonyl]-1,3-dioxo-2,3-dihydro-1H-indene-2-carboxamide] | 1.1 µM
17 | – | – | – | 32% | 60% | CC(=O)NCC(=O)C1C(=O)c2ccc(Oc3ccc4c(c3)C(=O)C(C(=O)CNC(C)=O)C4=O)cc2C1=O (stereo not drawn) [Example 298, N-[2-(5-{[2-(2-acetamidoacetyl)-1,3-dioxo-2,3-dihydro-1H-inden-5-yl]oxy}-1,3-dioxo-2,3-dihydro-1H-inden-2-yl)-2-oxoethyl]acetamide] | –
18 | – | 22% | 32% | – | – | O=C(NC1CC1)C1C(=O)c2ccc(C#Cc3ccc4c(c3)C(=O)C(C(=O)NC3CC3)C4=O)cc2C1=O (stereo not drawn) [Example 300, N-cyclopropyl-5-{2-[2-(cyclopropylcarbamoyl)-1,3-dioxo-2,3-dihydro-1H-inden-5-yl]ethynyl}-1,3-dioxo-2,3-dihydro-1H-indene-2-carboxamide] | –
19 | – | 23% | 30% | – | – | CC(=O)C1C(=O)c2cc(S(=O)(=O)c3cnc4c(c3)C(=O)C(C(C)=O)C4=O)cnc2C1=O (stereo not drawn) [Example 301, 6-acetyl-3-({6-acetyl-5,7-dioxo-5H,6H,7H-cyclopenta[b]pyridin-3-yl}sulfonyl)-5H,6H,7H-cyclopenta[b]pyridine-5,7-dione] | –
20 | 60% | – | – | – | – | O=C(O)CCNC(=O)C1C(=O)c2ccc(S(=O)(=O)c3ccc4c(c3)C(=O)C(C(=O)NCCC(=O)O)C4=O)cc2C1=O (stereo not drawn) [Example 303, 3-{[5-({2-[(2-carboxyethyl)carbamoyl]-1,3-dioxo-2,3-dihydro-1H-inden-5-yl}sulfonyl)-1,3-dioxo-2,3-dihydro-1H-inden-2-yl]formamido}propanoic acid] | –
21 | – | 13% | 50% | – | – | O=C(O)CCNC(=O)C1C(=O)c2ccc(Oc3ccc4c(c3)C(=O)C(C(=O)NCCC(=O)O)C4=O)cc2C1=O (stereo not drawn) [Example 305, 3-{[5-({2-[(2-carboxyethyl)carbamoyl]-1,3-dioxo-2,3-dihydro-1H-inden-5-yl}oxy)-1,3-dioxo-2,3-dihydro-1H-inden-2-yl]formamido}propanoic acid] | –
22 | – | 15% | 47% | – | – | O=C(O)CNC(=O)C1C(=O)c2ccc(Oc3ccc4c(c3)C(=O)C(C(=O)NCC(=O)O)C4=O)cc2C1=O (stereo not drawn) [Example 307, 2-{[5-({2-[(carboxymethyl)carbamoyl]-1,3-dioxo-2,3-dihydro-1H-inden-5-yl}oxy)-1,3-dioxo-2,3-dihydro-1H-inden-2-yl]formamido}acetic acid] | –
23 | – | 20% | 32% | – | – | O=C(O)CNC(=O)C1C(=O)c2ccc(C(=O)c3ccc4c(c3)C(=O)C(C(=O)NCC(=O)O)C4=O)cc2C1=O (stereo not drawn) [Example 309, 2-[(5-{2-[(carboxymethyl)carbamoyl]-1,3-dioxo-2,3-dihydro-1H-indene-5-carbonyl}-1,3-dioxo-2,3-dihydro-1H-inden-2-yl)formamido]acetic acid] | –
